# According to article PMC6814236, “Monitoring and characterizing soluble and membrane-bound ectonucleotidases CD73 and CD39” (PLoS ONE, 2019):
# Legend:
# CD39 (His-Tag Human) = target: T1, CD39 (His-Tag Human) (Homo sapiens, UniProt P49961); assay: Enzyme activity of purified CD39 with ATP or ADP as substrate; format: biochemical; details: 0.1ng CD39, 10 μM ATP or 10 μM ADP, 30min at 37°C
# T1 construct: His; purchased R&D Systems
# T1 sequence (P49961 1-510): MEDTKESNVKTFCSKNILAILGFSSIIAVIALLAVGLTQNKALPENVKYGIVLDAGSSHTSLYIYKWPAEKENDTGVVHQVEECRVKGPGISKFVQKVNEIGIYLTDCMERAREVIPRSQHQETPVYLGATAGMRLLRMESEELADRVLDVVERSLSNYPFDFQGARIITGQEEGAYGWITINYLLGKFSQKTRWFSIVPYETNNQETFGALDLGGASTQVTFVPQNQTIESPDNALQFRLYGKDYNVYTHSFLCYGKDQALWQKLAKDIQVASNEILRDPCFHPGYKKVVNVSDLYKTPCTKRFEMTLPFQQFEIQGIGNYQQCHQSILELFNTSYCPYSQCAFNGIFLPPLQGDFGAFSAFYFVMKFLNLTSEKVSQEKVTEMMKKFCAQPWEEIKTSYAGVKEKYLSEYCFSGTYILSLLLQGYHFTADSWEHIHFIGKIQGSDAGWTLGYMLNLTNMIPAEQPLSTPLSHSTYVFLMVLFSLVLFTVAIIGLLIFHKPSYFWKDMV
# Experimental: • 2 Determination of enzyme activity of purified cytosolic cN-II. Activity of purified cN-II (Human cytosolic 5'-Nucleotidase) was determined using 25μl reaction buffer (50mM HEPES, pH 7.0, 100mM KCl, 20mM MgCl2, 5mM DTT, 2.5mM dATP, and 0.1mg/ml BSA) containing enzyme and AMP substrate at 10μM (96-well format). Reaction continued at 37°C for 60 minutes or for a certain time period and terminated by the addition of equal volume (25μl) of AMP-Glo™ Reagent I. Reactions were mixed well and incubated for additional 30 min at 23°C. This was followed by the addition of 50 μl of AMP Detection Solution (10μl of AMP-Glo™ Reagent II per ml of Kinase-Glo® One Solution) and incubated for additional 60 min at 23°C before reading luminescence. • 3 Determination of enzyme activity of purified CD39. […] When ATP is used as a substrate, an equal volume of Kinase-Glo® One Solution was added to CD39 reactions and incubated for 15 min before reading luminescence using a luminometer. When ADP is used as a substrate for CD39, after enzyme reaction completion, an equal volume of AMP Detection Solution with a known CD39 known inhibitor, such as POM 1 at 50μM final concentration was added. Reactions were mixed well and incubated for 60min before reading luminescence using luminometer. For enzyme dilution, reaction buffer can be used for dilution of enzymes.
# [1] = target: T2, Recombinant Human 5'-Nucleotidase/CD73 (Homo sapiens, UniProt P21589); assay: Enzyme activity of purified CD73 (AMP-Glo assay); format: biochemical
# T2 construct: purchased R&D Systems
# T2 sequence (P21589 27-574): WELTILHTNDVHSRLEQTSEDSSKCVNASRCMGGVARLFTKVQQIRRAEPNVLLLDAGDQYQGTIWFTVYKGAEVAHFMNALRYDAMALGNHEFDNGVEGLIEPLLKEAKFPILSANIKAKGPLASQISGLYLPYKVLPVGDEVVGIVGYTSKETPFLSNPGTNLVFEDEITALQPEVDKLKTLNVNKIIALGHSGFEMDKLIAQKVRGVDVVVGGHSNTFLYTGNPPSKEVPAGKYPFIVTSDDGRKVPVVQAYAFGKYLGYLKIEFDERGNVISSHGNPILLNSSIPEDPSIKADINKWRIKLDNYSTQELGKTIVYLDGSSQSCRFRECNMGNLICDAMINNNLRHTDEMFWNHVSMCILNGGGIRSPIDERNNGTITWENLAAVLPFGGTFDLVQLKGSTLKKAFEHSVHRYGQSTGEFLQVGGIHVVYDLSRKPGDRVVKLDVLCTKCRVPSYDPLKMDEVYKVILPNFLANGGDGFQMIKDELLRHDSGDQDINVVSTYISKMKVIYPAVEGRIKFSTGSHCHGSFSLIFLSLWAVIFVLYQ
# Experimental: • Determination of enzyme activity of purified CD73. In a 25 μl reaction buffer (10mM HEPES, pH 7.4, 2mM MgCl2, 1mM CaCl2, and 0.1mg/ml BSA) containing enzyme and AMP substrate at 1μM to 10μM (96-well format), enzyme activity was performed at 23°C for specified time period and terminated by the addition of equal volume (25μl) of AMP-Glo™ Reagent I containing 50 μM (final concentration) of known CD73 inhibitor, such as AMPCP. Reactions were mixed well and incubated for additional 30 min at 23°C. This was followed by the addition of 50 μl of AMP Detection Solution (10μl of AMP-Glo™ Reagent II per ml of Kinase-Glo® One Solution) and incubated for additional 60 min at 23°C before reading luminescence.
SMILES,inhibitory effect on purified CD39 (CD39 (His-Tag Human)),"effect on CD73 enzyme activity ([1]; purified CD73, 0.1ng, 1μM AMP, 5 min at 23°C (Fig 6))","Km ([1]; 0.01ng CD73 per reaction, varying AMP, 5min at 23°C)"
"CCN(CC)c1ncnc2c1ncn2[C@@H]1O[C@H](COP(=O)(O)OP(=O)(O)C(Br)(Br)P(=O)(O)O)[C@@H](O)[C@H]1O.[Na+].[Na+].[Na+] [ARL 67156, 6-N,N-Diethyl-D-β,γ-dibromomethyleneATP trisodium salt]",inhibited,no effect,
"Nc1ncnc2c1ncn2[C@@H]1O[C@H](COP(=O)(O)O)[C@@H](O)[C@H]1O [AMP, adenosine monophosphate]",,,2.53 µM
